# Measured values: ChEMBL document CHEMBL4138175, “Newly designed organotin(IV) carboxylates with peptide linkage: Synthesis, structural elucidation, physicochemical characterizations and pharmacological investigations” (Eur J Med Chem, 2018)
# Test system: NCI-H157
# Test: Cytotoxicity against human NCI-H157 cells at 100 uM after 48 hrs by sulforhodamine B assay
# Assay type: functional
row,Substance,Activity
1,Triphenylstannyl 2-(4-methoxy-2-nitrophenylcarbamoyl)benzoate,61.7%

# Test system: NCI-H157
# Test: Cytotoxicity against human NCI-H157 cells at 10 uM after 48 hrs by sulforhodamine B assay
# Assay type: functional
row,Substance,Activity
1,Triphenylstannyl 2-(4-methoxy-2-nitrophenylcarbamoyl)benzoate,58.4%

# Test system: NCI-H157
# Test: Cytotoxicity against human NCI-H157 cells at 1 uM after 48 hrs by sulforhodamine B assay
# Assay type: functional
row,Substance,Activity
1,Triphenylstannyl 2-(4-methoxy-2-nitrophenylcarbamoyl)benzoate,55.7%

# Test system: NCI-H157
# Test: Cytotoxicity against human NCI-H157 cells at 0.1 uM after 48 hrs by sulforhodamine B assay
# Assay type: functional
row,Substance,Activity
1,Triphenylstannyl 2-(4-methoxy-2-nitrophenylcarbamoyl)benzoate,52.3%

# Test system: Leishmania major
# Test: Antileishmanial activity against Leishmania major promastigotes at 100 uM after 72 hrs by MTT assay relative to control
# Assay type: functional
row,Substance,Activity
1,Triphenylstannyl 2-(4-methoxy-2-nitrophenylcarbamoyl)benzoate,64.3%

# Test system: Leishmania major
# Test: Antileishmanial activity against Leishmania major promastigotes at 10 uM after 72 hrs by MTT assay relative to control
# Assay type: functional
row,Substance,Activity
1,Triphenylstannyl 2-(4-methoxy-2-nitrophenylcarbamoyl)benzoate,59.4%

# Test system: Leishmania major
# Test: Antileishmanial activity against Leishmania major promastigotes at 1 uM after 72 hrs by MTT assay relative to control
# Assay type: functional
row,Substance,Activity
1,Triphenylstannyl 2-(4-methoxy-2-nitrophenylcarbamoyl)benzoate,53.6%

# Test system: Leishmania major
# Test: Antileishmanial activity against Leishmania major promastigotes at 0.1 uM after 72 hrs by MTT assay relative to control
# Assay type: functional
row,Substance,Activity
1,Triphenylstannyl 2-(4-methoxy-2-nitrophenylcarbamoyl)benzoate,50.7%

# Test system: Klebsiella pneumoniae
# Test: Antibacterial activity against Klebsiella pneumoniae assessed as zone of inhibition after 24 to 48 hrs by well diffusion method
# Assay type: functional
row,Substance,inhibition zone (IZ)
1,Triphenylstannyl 2-(4-methoxy-2-nitrophenylcarbamoyl)benzoate,20.2 mm

# Test system: Streptococcus pyogenes
# Test: Antibacterial activity against Streptococcus pyogenes assessed as zone of inhibition after 24 to 48 hrs by well diffusion method
# Assay type: functional
row,Substance,inhibition zone (IZ)
1,Triphenylstannyl 2-(4-methoxy-2-nitrophenylcarbamoyl)benzoate,11.7 mm

# Test system: Staphylococcus epidermidis
# Test: Antibacterial activity against Staphylococcus epidermidis assessed as zone of inhibition after 24 to 48 hrs by well diffusion method
# Assay type: functional
row,Substance,inhibition zone (IZ)
1,Triphenylstannyl 2-(4-methoxy-2-nitrophenylcarbamoyl)benzoate,19 mm

# Test system: Staphylococcus aureus
# Test: Antibacterial activity against Staphylococcus aureus assessed as zone of inhibition after 24 to 48 hrs by well diffusion method
# Assay type: functional
row,Substance,inhibition zone (IZ)
1,Triphenylstannyl 2-(4-methoxy-2-nitrophenylcarbamoyl)benzoate,4.66 mm

# Test system: Serratia marcescens
# Test: Antibacterial activity against Serratia marcescens assessed as zone of inhibition after 24 to 48 hrs by well diffusion method
# Assay type: functional
row,Substance,inhibition zone (IZ)
1,Triphenylstannyl 2-(4-methoxy-2-nitrophenylcarbamoyl)benzoate,4.66 mm

# Test system: Pseudomonas aeruginosa
# Test: Antibacterial activity against Pseudomonas aeruginosa assessed as zone of inhibition after 24 to 48 hrs by well diffusion method
# Assay type: functional
row,Substance,inhibition zone (IZ)
1,Triphenylstannyl 2-(4-methoxy-2-nitrophenylcarbamoyl)benzoate,22.7 mm

# Test system: Escherichia coli
# Test: Antibacterial activity against Escherichia coli assessed as zone of inhibition after 24 to 48 hrs by well diffusion method
# Assay type: functional
row,Substance,inhibition zone (IZ)
1,Triphenylstannyl 2-(4-methoxy-2-nitrophenylcarbamoyl)benzoate,11 mm

# Test system: Klebsiella pneumoniae
# Test: Antibacterial activity against Klebsiella pneumoniae assessed as zone of inhibition by measuring activity index after 24 to 48 hrs by well diffusion method relative to tetracycline
# Assay type: functional, organism-based
row,Substance,Activity index
1,Triphenylstannyl 2-(4-methoxy-2-nitrophenylcarbamoyl)benzoate,1.44

# Test system: Klebsiella pneumoniae
# Test: Antibacterial activity against Klebsiella pneumoniae assessed as zone of inhibition by measuring activity index after 24 to 48 hrs by well diffusion method relative to ampicillin
# Assay type: functional, organism-based
row,Substance,Activity index
1,Triphenylstannyl 2-(4-methoxy-2-nitrophenylcarbamoyl)benzoate,3.37

# Test system: Klebsiella pneumoniae
# Test: Antibacterial activity against Klebsiella pneumoniae assessed as zone of inhibition by measuring activity index after 24 to 48 hrs by well diffusion method relative to amoxicillin
# Assay type: functional, organism-based
row,Substance,Activity index
1,Triphenylstannyl 2-(4-methoxy-2-nitrophenylcarbamoyl)benzoate,3.37

# Test system: Staphylococcus epidermidis
# Test: Antibacterial activity against Staphylococcus epidermidis assessed as zone of inhibition by measuring activity index after 24 to 48 hrs by well diffusion method relative to tetracycline
# Assay type: functional, organism-based
row,Substance,Activity index
1,Triphenylstannyl 2-(4-methoxy-2-nitrophenylcarbamoyl)benzoate,1.9

# Test system: Staphylococcus epidermidis
# Test: Antibacterial activity against Staphylococcus epidermidis assessed as zone of inhibition by measuring activity index after 24 to 48 hrs by well diffusion method relative to amoxicillin
# Assay type: functional, organism-based
row,Substance,Activity index
1,Triphenylstannyl 2-(4-methoxy-2-nitrophenylcarbamoyl)benzoate,9.5

# Test system: Serratia marcescens
# Test: Antibacterial activity against Serratia marcescens assessed as zone of inhibition by measuring activity index after 24 to 48 hrs by well diffusion method relative to penicillin G
# Assay type: functional
row,Substance,Activity index
1,Triphenylstannyl 2-(4-methoxy-2-nitrophenylcarbamoyl)benzoate,0.58

# Test system: Serratia marcescens
# Test: Antibacterial activity against Serratia marcescens assessed as zone of inhibition by measuring activity index after 24 to 48 hrs by well diffusion method relative to ampicillin
# Assay type: functional
row,Substance,Activity index
1,Triphenylstannyl 2-(4-methoxy-2-nitrophenylcarbamoyl)benzoate,0.58

# Test system: Serratia marcescens
# Test: Antibacterial activity against Serratia marcescens assessed as zone of inhibition by measuring activity index after 24 to 48 hrs by well diffusion method relative to amoxicillin
# Assay type: functional
row,Substance,Activity index
1,Triphenylstannyl 2-(4-methoxy-2-nitrophenylcarbamoyl)benzoate,0.78

# Test system: Pseudomonas aeruginosa
# Test: Antibacterial activity against Pseudomonas aeruginosa assessed as zone of inhibition by measuring activity index after 24 to 48 hrs by well diffusion method relative to tetracycline
# Assay type: functional, organism-based
row,Substance,Activity index
1,Triphenylstannyl 2-(4-methoxy-2-nitrophenylcarbamoyl)benzoate,3.78

# Test system: Pseudomonas aeruginosa
# Test: Antibacterial activity against Pseudomonas aeruginosa assessed as zone of inhibition by measuring activity index after 24 to 48 hrs by well diffusion method relative to penicillin G
# Assay type: functional, organism-based
row,Substance,Activity index
1,Triphenylstannyl 2-(4-methoxy-2-nitrophenylcarbamoyl)benzoate,3.78

# Test system: Pseudomonas aeruginosa
# Test: Antibacterial activity against Pseudomonas aeruginosa assessed as zone of inhibition by measuring activity index after 24 to 48 hrs by well diffusion method relative to amoxicillin
# Assay type: functional, organism-based
row,Substance,Activity index
1,Triphenylstannyl 2-(4-methoxy-2-nitrophenylcarbamoyl)benzoate,3.78

# Test system: Escherichia coli
# Test: Antibacterial activity against Escherichia coli assessed as zone of inhibition by measuring activity index after 24 to 48 hrs by well diffusion method relative to tetracycline
# Assay type: functional
row,Substance,Activity index
1,Triphenylstannyl 2-(4-methoxy-2-nitrophenylcarbamoyl)benzoate,5.5

# Test system: NCI-H157
# Test: Cytotoxicity against human NCI-H157 cells after 48 hrs by sulforhodamine B assay
# Assay type: functional, cell-based
row,Substance,Activity
1,Triphenylstannyl 2-(4-methoxy-2-nitrophenylcarbamoyl)benzoate,Dose-dependent effect
